{"source": "patent US20230293530A1", "about": "“AGENTS FOR SENSITIZING SOLID TUMORS TO TREATMENT” (Yeda Research and Development Co. Ltd., priority 2020, published 2023)", "key": {"[1]": {"system": "NSCLC PDX explants with autologous CD8+ T cells", "assay": "Co-culture of NSCLC PDX tumor explants with autologous CD8+ T cells, IFNγ ELISA", "assay_type": "cell-based, human", "settings": "for IFNγ secretion by autologous CD8+ T cells, anti-PD1 plus mizoribine-treated explants: explants pre-treated with mizoribine 0.3 mM 10 hrs, nivolumab or pembrolizumab 20 µg/mL, 18 hours", "description": "Two patients bearing metastatic non-small cell lung cancer (NSCLC) were included in this study. Blood samples and fresh tumor tissue samples were procured just after their biopsy with patient consent and with Helsinki approval (number 0093-19-SOR). The samples were placed in serum free DMEM (Gibco) media then processed for implantation in NSG (NOD scid gamma) mice. Tumor tissue samples were implanted subcutaneously in dorsal flanks of the mice to form patient-derived xenografts (PDXs). All animal experiments were done under Institutional Animal Care and Use Committee (IACUC) of Ben-Gurion University of the Negev (BGU’s IACUC) according to specified protocols aiming to ensure animal welfare and reduce su □ ering. The Animal ethical clearance protocol number used for this research is IL-80-12-2015. After isolation of peripheral blood mononuclear cells (PBMCs) from the peripheral blood of the patients according to standard protocol using Lymphocyte Separation Medium (LSM, MP Biomedicals, SKU 0850494-CF), CD8^+ T cells were isolated from PBMCs by employing human CD8 Microbeads (Miltenyi Biotec, 130-045-201), LS column (Miltenyi Biotec, 130-042-401) and MidiMACS Separator (130-042-302) following manufacturer’s protocol. For culturing and maintenance of CD8 T cells, RPMI containing 10% human male AB plasma (Sigma, H4522), 1 mM sodium pyruvate, 2 mM L-glutamine, 0.1 mM MEM non-essential amino acids, 1% penicillin/streptomycin, 10 mM HEPES (Life Technologies), 200 IU/mL recombinant human IL-2 (PeproTech) and 50 ng/mL anti-human CD3 Antibody (BioLegend, 317302) were used for the first 48 hrs followed by culturing and passaging in media containing 200 IU/mL of IL-2.\n2×2×2 mm^3 tumor tissue explants were cut from PDXs with a specific tissue cutter and seeded singly in 48 well flat-bottom plates and incubated with either mizoribine (0.3 mM) in 400 µl of media or with only media for 10 hrs. Then, explants were washed once and transferred into new 48 well flat-bottom plates containing 2×10^5 CD8+T cells/well along with nivolumab (Opdivo, 20 µg/mL), pembrolizumab (Keytruda, 20 µg/mL) or mock solventin fresh 400 µl RPMI containing 20 IU/ml ofIL-2. After 18 hours of incubation, the supernatant was collected from the wells and then assayed for standard IFNγ ELISA assay (ELISA MAX, Biolegend) according to manufacturer’s instructions.\nTwo patients bearing metastatic non-small cell lung cancer (NSCLC) were included in this study. Blood samples and fresh tumor tissue samples were procured just after their biopsy with patient consent and with Helsinki approval (number 0093-19-SOR). The samples were placed in serum free DMEM (Gibco) media then processed for implantation in NSG (NOD scid gamma) mice (NOD.Cg-Prkdcscid Il2rgtm1Wjl, The Jackson Laboratory). Tumor tissue samples were implanted subcutaneously in dorsal flanks of the 7-9 weeks old male mice to form patient-derived xenografts (PDXs).\nAfter isolation of peripheral blood mononuclear cells (PBMCs) from the peripheral blood of the patients according to standard protocol using Lymphocyte Separation Medium (LSM, MP Biomedicals, SKU 0850494-CF), CD8^+ T cells were isolated from PBMCs by employing human CD8 Microbeads (Miltenyi Biotec, 130-045-201), LS column (Miltenyi Biotec, 130-042-401) and MidiMACS Separator (130-042-302) following manufacturer’s protocol. For culturing and maintenance of CD8 T cells, RPMI containing 10% human male AB plasma (Sigma, H4522), 1 mM sodium pyruvate, 2 mM L-glutamine, 0.1 mM MEM non-essential amino acids, 1% penicillin/streptomycin, 10 mM HEPES (Life Technologies), 200 IU/mL recombinant human IL-2 (PeproTech) and 50 ng/mL anti-human CD3 Antibody (BioLegend, 317302) were used for the first 48 hrs followed by culturing and passaging in media containing 200 IU/mL of IL-2.\nPDXs from patients with lung cancer non responsive to anti-PD1 were exposed to no treatment, to mizoribine, or to either EDHB (left panel) or Viagra (right panel). […]"}, "4T1 breast cancer cells": {"system": "4T1 breast cancer cells", "assay": "In-vitro EDHB nucleotide analysis by LC-MS, 4T1", "assay_type": "cell-based, murine", "settings": "4T1 cells, 200 uM EDHB, 8 hours", "excerpt": "LC-MS analysis: The LC-MS/MS instrument consisting of an Acquity I-class UPLC system (Waters) and Xevo TQ-S triple quadrupole mass spectrometer (Waters), equipped with an electrospray ion source, and operated in positive ion mode was used for analysis of nucleoside monophosphates. MassLynx and TargetLynx software (version 4.1, Waters) were applied for the acquisition and analysis of data. Chromatographic separation was done on a 100 mm × 2.1 mm internal diameter, 1.8-µm UPLC HSS T3 column equipped with 50 mm × 2.1 mm internal diameter, 1.8-µm UPLC HSS T3 pre-column (both Waters Acquity) with mobile phases A (10 mM ammonium acetate and 5 mM ammonium hydrocarbonate buffer, pH 7.65 adjusted with 10% acetic acid) and B (acetonitrile) at a flow rate of 0.3 mL min-1 and column temperature 25° C. […] Nucleotide concentration was calculated using a standard curve of the relevant nucleotide concentration in each sample. Standard curves included increasing concentration of all measured nucleotides ranging from 0-10 ug/ml that were positioned at the beginning and at the end of each run. All the calculated values for the different nucleotides in each sample fell within the standard curve range. […]"}, "4T1 cells": {"system": "4T1 cells", "assay": "In-vivo EDHB experiment, 4T1 tumors in mammary fat pad", "parameters": "species or system female BALB/c mice", "protocol": "In-vivo EDHB experiment: Eight-week-old female BALB/c mice were inoculated with 4T1 in the mammary fat pad (1 × 10^6 cells). ethyl 3,4 dihydroxybenzoate (EDHB) treatment was started after 4 days when the primary tumor nodule was established and palpable. EDHB (40 mg per kg) was intraperitoneally injected daily into cancer-bearing mice. EDHB was initially dissolved in 100% Ethanol and diluted to required concentration in saline. 95% Saline/5% Ethanol mix without drug was injected as a vehicle to control animals. Following injection, mice were treated with 250 ug of anti PD-1 antibody on days 7, 11, 13, 15. On day 19, mice were euthanized and tumors were removed and weighted."}, "A549 cells": {"system": "A549 cells", "assay": "Nucleotide levels by LC-MS with or without methotrexate", "assay_type": "cell-based", "settings": "1.2 µM Methotrexate", "protocol": "Methotrexate treatment: A549 cells were grown for 48 hr in control medium or supplemented with 1.2 µM Methotrexate (Holland-Moran). Nucleotide levels were measured as described below by LC-MS. Purine/pyrimidine ratio was calculated by dividing (AMP+GMP+ATP+ADP+GTP) concentration by (UMP+CMP+TMP+UTP+CTP+TTP) concentration.\nLC-MS analysis: The LC-MS/MS instrument consisting of an Acquity I-class UPLC system (Waters) and Xevo TQ-S triple quadrupole mass spectrometer (Waters), equipped with an electrospray ion source, and operated in positive ion mode was used for analysis of nucleoside monophosphates. MassLynx and TargetLynx software (version 4.1, Waters) were applied for the acquisition and analysis of data. Chromatographic separation was done on a 100 mm × 2.1 mm internal diameter, 1.8-µm UPLC HSS T3 column equipped with 50 mm × 2.1 mm internal diameter, 1.8-µm UPLC HSS T3 pre-column (both Waters Acquity) with mobile phases A (10 mM ammonium acetate and 5 mM ammonium hydrocarbonate buffer, pH 7.65 adjusted with 10% acetic acid) and B (acetonitrile) at a flow rate of 0.3 mL min-1 and column temperature 25° C. A gradient was used as follows: for 0-3 min the column was held at 0.2% B, then 3-3.5 min a linear increase to 100% B, 3.5-4.0 min held at 100% B, 4.0-4.5 min back to 0.2% B and equilibration at 0.2% B for 2.5 min. Samples kept at 8° C. were automatically injected in a volume of 3 µl. For mass spectrometry, argon was used as the collision gas with a flow of 0.10 mL min-1. The capillary voltage was set to 2.50 kV, source temperature 150° C., desolvation temperature 400° C., cone gas flow 150 1 hr-1, desolvation gas flow 800 1 hr-1. Nucleotide concentration was calculated using a standard curve of the relevant nucleotide concentration in each sample. Standard curves included increasing concentration of all measured nucleotides ranging from 0-10 ug/ml that were positioned at the beginning and at the end of each run. All the calculated values for the different nucleotides in each sample fell within the standard curve range. Analytes were detected in positive mode using multiple-reaction monitoring listed in Lee, J. S. et al. 2018 (REF_9).\nNucleotide levels of 4T1 cells grown either with or without 1.2 µM Methotrexate (Holland-Moran) for 48 h, were measured and quantified by liquid chromatography-mass spectrometry (LC-MS) as µg/mg protein."}}, "data": [{"compound": "CCOC(=O)c1ccc(O)c(O)c1", "note": "[EDHB, Ethyl 3,4 dihydroxybenzoate]", "values": [{"measurement": "response to anti-PD1 therapy (IFN-g response) in PDX of non responsive patients", "setting": "[1]; PDXs from lung cancer patients non responsive to anti-PD1, IFN-g measured following anti-PD1", "result": "increases response to anti-PD1 therapy"}, {"measurement": "cellular deoxypyrimidine to deoxypurine ratio (pyrimidine / purine ratio)", "setting": "4T1 breast cancer cells", "result": "increase in pyrimidine / purine ratio"}, {"measurement": "tumor weight, EDHB and anti PD-1 combination treatment", "setting": "4T1 cells; 40 mg/kg EDHB IP daily from day 4, 250 ug anti PD-1 IP days 7, 11, 13, 15", "result": "reduces tumor weight"}, {"measurement": "total weight of the mice", "setting": "4T1 cells; 40 mg/kg EDHB IP daily, with anti PD-1", "result": "did not cause any change"}]}, {"compound": "CN(Cc1cnc2nc(N)nc(N)c2n1)c1ccc(C(=O)N[C@@H](CCC(=O)O)C(=O)O)cc1", "note": "[Methotrexate]", "values": [{"measurement": "AMP level, Methotrexate Treatment", "setting": "A549 cells; 48 h, 4T1 cells", "result": 483.2, "unit": "µg/mg pt"}, {"measurement": "ATP level, Methotrexate Treatment", "setting": "A549 cells; 48 h, 4T1 cells", "result": 75.1, "unit": "µg/mg pt"}, {"measurement": "CMP level, Methotrexate Treatment", "setting": "A549 cells; 48 h, 4T1 cells", "result": 7.3, "unit": "µg/mg pt"}, {"measurement": "CTP level, Methotrexate Treatment", "setting": "A549 cells; 48 h, 4T1 cells", "result": 12.0, "unit": "µg/mg pt"}, {"measurement": "GMP level, Methotrexate Treatment", "setting": "A549 cells; 48 h, 4T1 cells", "result": 28.46, "unit": "µg/mg pt"}, {"measurement": "GTP level, Methotrexate Treatment", "setting": "A549 cells; 48 h, 4T1 cells", "result": 16.7, "unit": "µg/mg pt"}, {"measurement": "TMP level, Methotrexate Treatment", "setting": "A549 cells; 48 h, 4T1 cells", "result": 0.0078, "unit": "µg/mg pt"}, {"measurement": "TTP level, Methotrexate Treatment", "setting": "A549 cells; 48 h, 4T1 cells", "result": 0.004432, "unit": "µg/mg pt"}, {"measurement": "UMP level, Methotrexate Treatment", "setting": "A549 cells; 48 h, 4T1 cells", "result": 38.39, "unit": "µg/mg pt"}, {"measurement": "UTP level, Methotrexate Treatment", "setting": "A549 cells; 48 h, 4T1 cells", "result": 36.9, "unit": "µg/mg pt"}, {"measurement": "purine to pyrimidine ratio", "setting": "A549 cells; high ASS1 expressing lung cancer cells (A549), 48 hr", "result": "decreased their purine to pyrimidine ratio"}]}, {"compound": "nivolumab: anti-PD1 antibody", "values": [{"measurement": "IFNγ secretion by autologous CD8+ T cells, anti-PD1 plus mizoribine-treated explants", "setting": "[1]", "result": "significant elevation in IFNγ secretion"}]}, {"compound": "pembrolizumab: anti-PD1 antibody", "values": [{"measurement": "IFNγ secretion by autologous CD8+ T cells, anti-PD1 plus mizoribine-treated explants", "setting": "[1]", "result": "significant elevation in IFNγ secretion"}]}]}
